Source: US20220000110A1, “COMPOSITIONS COMPRISING PYRIDINE CARBOXYLATE HERBICIDES AND CELLULOSE BIOSYNTHESIS INHIBITOR HERBICIDES” (priority 2018, published 2022)

Tests used:
Test in all cases: Greenhouse postemergence herbicidal effect, visual injury after 20-22 d
Type in all cases: in vivo
[1] = tested on: Ipomoea hederacea (ivyleaf morningglory); settings: IPOHE
Source text: (§1) Greenhouse Trial Methodology—Evaluation of Postemergence Herbicidal Effect
(§2) Seeds of the desired test plant species were planted in a 90:10% v/v (volume/volume) mixture of PRO-MIX® BX (Premier Tech Horticulture, Quakertown, Pa., USA) and PROFILE® GREENS GRADE™ (Profile Products LLC, Buffalo Grove, Ill., USA) planting mixture, which typically has a pH of 5.2 to 6.2 and an organic matter content of at least 50 percent, in plastic pots with a surface area of 103.2 square centimeters (cm^2). In some aspects, to help ensure good germination and healthy plants, a fungicide treatment and/or other chemical or physical treatment was applied. The plants were grown for 7-36 days (d) in a greenhouse with an approximate 14-hour (h) photoperiod which was maintained at about 23° C. during the day and 22° C. during the night. Nutrients and water were added on a regular basis and supplemental lighting was provided with overhead metal halide 1000-Watt lamps as necessary. The plants were employed for testing when they reached the second or third true leaf stage.
(§3) Emulsifiable concentrates of each of each pyridine carboxylate herbicide (Compound A or Compound B) were prepared at 100 grams acid equivalent per liter (g ae/L). The emulsifiable concentrates also included a safener, at 120 grams active ingredient per liter (g ai/L). An aliquot of each emulsifiable concentrate was placed in a 25 mL glass vial and diluted with an aqueous mixture of 1.25% (v/v) ACTIROB® B esterified rapeseed oil (Bayer Crop Science, Research Triangle Park, N.C., USA) or MSO® Concentrate with LECI-TECH® methylated soybean oil (Loveland Products, Loveland, Colo., USA) to obtain concentrated stock solutions at the highest application rate for each herbicide, based upon a 12 milliliter (mL) application volume at a rate of 187 liters per hectare (L/ha). The concentrated stock solutions were further diluted with an aqueous mixture of 1.25% v/v ACTIROB® B or MSO® Concentrate with LECI-TECH® to obtain stock solutions at reduced application rates for each herbicide. Spray solutions of the herbicide combinations (Compound A or Compound B plus the CBI herbicide) were prepared by adding weighed amounts or aliquots of the CBI herbicide to the stock solutions of Compound A or Compound B to form 12-mL spray solutions in two-way combinations.
(§4) The spray solutions were applied to the plant material with an overhead Mandel track sprayer equipped with 8002E nozzles calibrated to deliver 187 L/ha over an application area of 0.503 square meters (m^2) at a spray height of 18 inches (43 centimeters (cm)) above the average plant canopy. Control plants were sprayed in the same manner with the solvent blank. All pyridine carboxylate herbicide (component a) application rates are given as “g ae/ha” and all CBI herbicide (component b) application rates are given as “g ai/ha.”
(§5) The treated plants and control plants were placed in a greenhouse as described above and watered by sub-irrigation to prevent wash-off of the test compounds. After 20-22 d, the condition of the test plants as compared with that of the control plants was determined visually and scored on a scale of 0 to 100 percent where 0 corresponds to no injury and 100 corresponds to complete kill.

[2] = tested on: Salsola kali (Russian thistle); settings: SASKR
Source text: as §1, §2, §3, §4, §5

[3] = tested on: Digitaria sanguinalis (large crabgrass); settings: DIGSA
Source text: as §1, §2, §3, §4, §5

[4] = tested on: Cirsium arvense (Canadian thistle); settings: CIRAR
Source text: as §1, §2, §3, §4, §5

[5] = tested on: Brassica napus (winter rape); settings: BRSNW
Source text: as §1, §2, §3, §4, §5

[6] = tested on: Abutilon theophrasti (velvetleaf); settings: ABUTH
Source text: as §1, §2, §3, §4, §5

[7] = tested on: Viola tricolor (wild pansy); settings: VIOTR
Source text: as §1, §2, §3, §4, §5

[8] = tested on: Amaranthus retroflexus (pigweed); settings: AMARE
Source text: as §1, §2, §3, §4, §5

[9] = tested on: Brassica napus (spring rape); settings: BRSNN
Source text: as §1, §2, §3, §4, §5

[10] = tested on: Matricaria chamomilla (wild chamomile); settings: MATCH
Source text: as §1, §2, §3, §4, §5

[11] = tested on: Polygonum convolvulus (wild buckwheat); settings: POLCO
Source text: as §1, §2, §3, §4, §5

[12] = tested on: Setaria faberi (giant foxtail); settings: SETFA
Source text: as §1, §2, §3, §4, §5

[13] = tested on: Chenopodium album L. (common lambsquarters); settings: CHEAL
Source text: as §1, §2, §3, §4, §5

[14] = tested on: Echinochloa crus-galli (barnyard grass); settings: ECHCG
Source text: as §1, §2, §3, §4, §5

[15] = tested on: Lolium multiflorum (Italian rye grass); settings: Table 2; LOLMU; Indaziflam 35 g/ha
Source text: as §1, §2, §3, §4, §5

Kochia scoparia (kochia) = settings: KCHSC
Source text: as §1, §2, §3, §4, §5

Glycine max (soybean) = settings: Table 1; GLXMA; Isoxaben 50 g/ha
Source text: as §1, §2, §3, §4, §5

[16] = tested on: Helianthus annuus (common sunflower); settings: Table 1; HELAN; Isoxaben 50 g/ha
Source text: as §1, §2, §3, §4, §5

[17] = tested on: Oryza sativa (common rice); settings: Table 1; ORYSA; Isoxaben 50 g/ha
Source text: as §1, §2, §3, §4, §5

[18] = tested on: Stellaria media (chickweed); settings: Table 1; STEME; Isoxaben 50 g/ha
Source text: as §1, §2, §3, §4, §5

[19] = tested on: Euphorbia heterophylla (poinsettia); settings: Table 1; EPHHL; Isoxaben 50 g/ha
Source text: as §1, §2, §3, §4, §5

[20] = tested on: Sorghum vulgare (grain sorghum); settings: Table 1; SORVU; Isoxaben 50 g/ha
Source text: as §1, §2, §3, §4, §5

[21] = tested on: Cyperus esculentus (nutsedge); settings: Table 1; CYPES; Isoxaben 50 g/ha
Source text: as §1, §2, §3, §4, §5

[22] = tested on: Rumex obtusifolius (broad-leaf dock); settings: Table 1; RUMOB; Isoxaben 50 g/ha
Source text: as §1, §2, §3, §4, §5

Cc1ccc2c(c1)[C@H](Nc1nc(N)nc(C(C)F)n1)[C@@H](C)C2 (some centres unmarked) [Indaziflam, indaziflam, reference compound]
Obs % visual injury ([1]; Table 2, Indaziflam 35 g/ha): 10% | Obs % visual injury ([2]; Table 3, Indaziflam 35 g/ha): 55% | Obs % visual injury ([2]; Table 3, Indaziflam 70 g/ha): 60% | Obs % visual injury ([3]; Table 2, Indaziflam 35 g/ha): 0% | Obs % visual injury ([4]; Table 2, Indaziflam 35 g/ha): 5% | Obs % visual injury ([5]; Table 3, Indaziflam 35 g/ha): 45% | Obs % visual injury ([5]; Table 3, Indaziflam 70 g/ha): 45% | Obs % visual injury ([6]; Table 2, Indaziflam 35 g/ha): 60% | Obs % visual injury ([7]; Table 2, Indaziflam 35 g/ha): 5% | Obs % visual injury ([8]; Table 3, Indaziflam 35 g/ha): 23% | Obs % visual injury ([8]; Table 3, Indaziflam 70 g/ha): 33% | Obs % visual injury ([9]; Table 2, Indaziflam 35 g/ha): 30% | Obs % visual injury ([10]; Table 3, Indaziflam 35 g/ha): 13% | Obs % visual injury ([10]; Table 3, Indaziflam 70 g/ha): 38% | Obs % visual injury ([11]; Table 2, Indaziflam 35 g/ha): 10% | Obs % visual injury ([11]; Table 3, Indaziflam 35 g/ha): 10% | Obs % visual injury ([11]; Table 3, Indaziflam 70 g/ha): 13% | Obs % visual injury ([12]; Table 2, Indaziflam 35 g/ha): 0% | Obs % visual injury ([13]; Table 3, Indaziflam 35 g/ha): 10% | Obs % visual injury ([13]; Table 3, Indaziflam 70 g/ha): 10% | Obs % visual injury ([14]; Table 2, Indaziflam 35 g/ha): 0% | Obs % visual injury [15]: 0% | Obs % visual injury (Kochia scoparia (kochia); Table 2, Indaziflam 35 g/ha): 40% | Obs % visual injury (Kochia scoparia (kochia); Table 3, Indaziflam 35 g/ha): 28% | Obs % visual injury (Kochia scoparia (kochia); Table 3, Indaziflam 70 g/ha): 30%

CCC(C)(CC)c1cc(NC(=O)c2c(OC)cccc2OC)on1 [Isoxaben, isoxaben, reference compound]
Obs % visual injury ([1]; Table 1, Isoxaben 50 g/ha): 3% | Obs % visual injury (Glycine max (soybean)): 0% | Obs % visual injury ([2]; Table 4, Isoxaben 50 g/ha): 0% | Obs % visual injury ([2]; Table 4, Isoxaben 100 g/ha): 5% | Obs % visual injury [16]: 18% | Obs % visual injury [17]: 0% | Obs % visual injury [18]: 0% | Obs % visual injury ([3]; Table 1, Isoxaben 50 g/ha): 0% | Obs % visual injury ([4]; Table 1, Isoxaben 50 g/ha): 8% | Obs % visual injury ([5]; Table 4, Isoxaben 50 g/ha): 53% | Obs % visual injury ([5]; Table 4, Isoxaben 100 g/ha): 60% | Obs % visual injury [19]: 15% | Obs % visual injury ([6]; Table 1, Isoxaben 50 g/ha): 5% | Obs % visual injury ([7]; Table 1, Isoxaben 50 g/ha): 0% | Obs % visual injury [20]: 8% | Obs % visual injury ([8]; Table 1, Isoxaben 50 g/ha): 10% | Obs % visual injury ([8]; Table 4, Isoxaben 50 g/ha): 20% | Obs % visual injury ([8]; Table 4, Isoxaben 100 g/ha): 10% | Obs % visual injury ([9]; Table 1, Isoxaben 50 g/ha): 55% | Obs % visual injury [21]: 0% | Obs % visual injury ([10]; Table 4, Isoxaben 50 g/ha): 15% | Obs % visual injury ([10]; Table 4, Isoxaben 100 g/ha): 15% | Obs % visual injury ([11]; Table 1, Isoxaben 50 g/ha): 0% | Obs % visual injury ([11]; Table 4, Isoxaben 50 g/ha): 0% | Obs % visual injury ([11]; Table 4, Isoxaben 100 g/ha): 0% | Obs % visual injury ([12]; Table 1, Isoxaben 50 g/ha): 5% | Obs % visual injury ([13]; Table 1, Isoxaben 50 g/ha): 0% | Obs % visual injury ([13]; Table 4, Isoxaben 50 g/ha): 0% | Obs % visual injury ([13]; Table 4, Isoxaben 100 g/ha): 0% | Obs % visual injury [22]: 0% | Obs % visual injury ([14]; Table 1, Isoxaben 50 g/ha): 5% | Obs % visual injury (Kochia scoparia (kochia); Table 1, Isoxaben 50 g/ha): 13% | Obs % visual injury (Kochia scoparia (kochia); Table 4, Isoxaben 50 g/ha): 5% | Obs % visual injury (Kochia scoparia (kochia); Table 4, Isoxaben 100 g/ha): 5%
